IC50 data for 14 compounds are collected here from patent US7855213B2 (AstraZeneca AB, priority 2006, dated 2010).

Counter-ions that a name gives are not always drawn.

In this assay the target is T1, human β-Secretase (Homo sapiens, UniProt P56817).
T1 construct: The soluble part of the human β-Secretase (AA 1-AA 460) was cloned; made in house
T1 sequence (P56817 22-460): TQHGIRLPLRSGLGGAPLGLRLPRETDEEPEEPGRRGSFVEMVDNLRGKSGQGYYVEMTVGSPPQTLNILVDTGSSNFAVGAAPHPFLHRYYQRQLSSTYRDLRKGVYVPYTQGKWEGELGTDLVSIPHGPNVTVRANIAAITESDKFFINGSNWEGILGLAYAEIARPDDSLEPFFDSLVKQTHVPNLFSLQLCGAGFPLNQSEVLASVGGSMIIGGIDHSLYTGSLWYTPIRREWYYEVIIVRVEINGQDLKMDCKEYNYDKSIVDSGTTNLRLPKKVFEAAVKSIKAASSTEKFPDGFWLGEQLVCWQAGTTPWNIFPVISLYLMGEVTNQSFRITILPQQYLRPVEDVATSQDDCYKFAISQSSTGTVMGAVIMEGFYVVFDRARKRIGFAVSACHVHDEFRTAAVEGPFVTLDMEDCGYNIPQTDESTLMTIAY
The experiment in a line: TR-FRET assay. The class given is biochemical.
As usually defined, the IC50 is the concentration at which inhibition is half-maximal. High values mean weaker potency, low ones greater potency. `COc1cccc(-c2cc(C3(c4ccncc4F)N=C(N)c4ccccc43)ccc2F)c1F` (centres unmarked) [Example 101, 1-(2′,6-Difluoro-3′-methoxybiphenyl-3-yl)-1-(3-fluoropyridin-4-yl)-1H-isoindol-3-amine] registered an IC50 of 230 nM.
The compound `COc1cccc(-c2cccc(C3(c4ccncc4)N=C(N)c4ccccc43)c2)c1` (centres unmarked) [Example 47, 3-(3′-Methoxy-biphenyl-3-yl)-3-pyridin-4-yl-3H-isoindol-1-ylamine trifluoroacetate] gave an IC50 of 55 nM.
Compound `NC1=NC(c2cccc(-c3cccnc3)c2)(c2ccc3c(c2)OCCO3)c2ccccc21` (centres unmarked) [Example 17, 3-(2,3-Dihydrobenzo[b][1,4]dioxin-6-yl)-3-(3-(pyridin-3-yl)phenyl)-3H-isoindol-1-amine trifluoroacetate] showed an IC50 of 1520 nM.
The value for `COc1ccc(C2(c3cccc(-c4cccnc4)c3)N=C(N)c3ccccc32)cc1` (centres unmarked) [Example 9, 3-(4-Methoxy-phenyl)-3-(3-pyridin-3-yl-phenyl)-3H-isoindol-1-ylamine trifluoroacetate] was 154 nM; that for `COc1cc(OS(C)(=O)=O)cc(-c2cccc(C3(c4ccc5c(c4)OCO5)N=C(N)c4ccccc43)c2)c1` (centres unmarked) [Example 34, Methanesulfonic acid 3′-(3-amino-1-benzo[1,3]dioxol-5-yl-1H-isoindol-1-yl)-5-methoxy-biphenyl-3-yl ester trifluoroacetate] was 1090 nM.
Compound `COc1ccc(C2(c3ccc(O)c(-c4cncnc4)c3)N=C(N)c3ccccc32)cc1` (centres unmarked) [Example 8, 4-[3-Amino-1-(4-methoxy-phenyl)-1H-isoindol-1-yl]-2-pyrimidin-5-yl-phenol trifluoroacetate] showed an IC50 of 40 nM.
The value for `COc1ccc(C#N)c(-c2cccc(C3(C4CC4)N=C(N)c4ccccc43)c2)c1` (centres unmarked) [Example 91, 3′-(3-Amino-1-cyclopropyl-1H-isoindol-1-yl)-5-methoxybiphenyl-2-carbonitrile acetate] was 413 nM; that for `COc1ccc(C2(c3cccc(-c4cncnc4)c3)N=C(N)c3ccccc32)cc1C` (centres unmarked) [Example 23, 3-(4-Methoxy-3-methyl-phenyl)-3-(3-pyrimidin-5-yl-phenyl)-3H-isoindol-1-ylamine trifluoroacetate] was 88 nM.
`COc1ccc(C2(c3cccc(-c4ccc(C)o4)c3)N=C(N)c3ccccc32)cc1` (centres unmarked) [Example 54, 1-(4-Methoxyphenyl)-1-[3-(5-methyl-2-furyl)phenyl]-1H-isoindol-3-amine 0.5 acetate]: it took 1000 nM to reach half-maximal inhibition (IC50).
As for `COc1cccc(-c2cccc(C3(c4ccc5c(c4)OCCO5)N=C(N)c4ccccc43)c2)c1` (centres unmarked) [Example 27, 3-(2,3-Dihydrobenzo[b][1,4]dioxin-6-yl)-3-(3′-methoxybiphenyl-3-yl)-3H-isoindol-1-amine trifluoroacetate], the 50% inhibitory concentration (IC50) was determined as 1060 nM.
As for `NC1=NC(c2ccc(OC(F)(F)F)cc2)(c2cccc(-c3cncc(F)c3)c2)c2ccccc21` (centres unmarked) [Example 56, 1-[3-(5-Fluoropyridin-3-yl)phenyl]-1-[4-(trifluoromethoxy)phenyl]-1H-isoindol-3-amine 0.75 acetate], the figure is 200 nM; as for `NC1=NC(c2ccc(O)cc2)(c2ccc(O)cc2)c2ccccc21` [Example 6, 4,4′-(3-Amino-isoindole-1,1-diyl)-bis-phenol], 3520 nM; as for `NC1=NC(c2cccc(-c3cccnc3F)c2)(c2ccnc(F)c2)c2ccccc21` (centres unmarked) [Example 117, 1-(2-Fluoropyridin-4-yl)-1-[3-(2-fluoropyridin-3-yl)phenyl]-1H-isoindol-3-amine], 100 nM.
As for `CS(=O)(=O)Oc1ccc(C2(c3cccc(-c4cncnc4)c3)N=C(N)c3ccccc32)cc1` (centres unmarked) [Example 38, Methanesulfonic acid 4-[3-amino-1-(3-pyrimidin-5-yl-phenyl)-1H-isoindol-1-yl]-phenyl ester trifluoroacetate], the figure is 706 nM.
